# Source: US12157727B2, “Substituted tetrahydroquinolin compounds as indoleamine 2,3-dioxygenase (IDO) inhibitors” (Merck Sharp & Dohme LLC, priority 2019, dated 2024)
# Target: T1, IDO1 (Homo sapiens, UniProt P14902)
# T1 construct: Human whole blood was drawn in sodium heparin coated tubes from healthy internal donors; from tissue; host or cells: human whole blood from healthy donors, stimulated with LPS and IFNγ
# Assay: IDO1 Human Whole Blood Assay
# Type: cell-based
# Settings: LPS and IFNγ 100 ng/mL, overnight (18 h), kynurenine by LC/MS/MS
# Procedure: Compounds to be tested were serially diluted in ten 3-fold steps in DMSO starting from 10 mM. 3 μL of compound dilutions or DMSO alone were then dispensed from the dilution plate into a polypropylene 96-well assay plate containing 97 μL of RPMI using an Echo 555 acoustic liquid handler (Labcyte). LPS and IFNγ was prepared in RPMI to a 10× of final conc. (1000 ng/mL), final concentration is 100 ng/mL.
# Human whole blood was drawn in sodium heparin coated tubes from healthy internal donors. 240 μL of blood was transferred to each of the wells of a v-bottom 96 well plate. 30 μL of compound was transferred from intermediate dilution plate, and incubated for 15 min. 30 μL from stimulants was then transferred to blood and mixed thoroughly. Plate was covered with breathable membrane and incubated at 37° C. for overnight (18 h).
# On day 2 isotope labeled standard of kynurenine and tryptophan was made in water at 10×concentration and 30 μL was added to the blood at 3 μM final concentration. The assay plates were centrifuged at 300×G for 10 min with no brake to separate plasma from red blood cells. 60 μL of plasma samples was removed without disturbing red blood cells. Plasma was diluted with RPMI in 1:1 ratio and proteins were precipitated out with two volumes of Acetonitrile. The plates were centrifuged at 4000×G for 60 min. 20 μL of supernatant was carefully transferred to a 384 well plate contain 40 μL of 0.1% formic acid in water and analyzed by LC/MS/MS.
# LC/MS/MS analyses were performed using Thermo Fisher's LX4-TSQ Quantum Ultra system. This system consists of four Agilent binary high-performance liquid chromatography (HPLC) pumps and a TSQ Quantum Ultra triple quadrupole MS/MS instrument. For each sample, 5 μL were injected onto an Atlantis T3 column (2.1 mm×150 mm, 3 μm particle size) from Waters. The mobile phase gradient pumped at 0.8 mL/min was used to elute the analytes from the column at 25° C. The elution started at 0% B increasing linearly to 25% B at 6.5 min, holding at 25% for 1 min, re-equilibrating to 10 min. Mobile phase A consisted of 0.1% formic acid in water. Mobile phase B consisted of 0.1% of formic acid in acetonitrile. Data was acquired in positive mode using a HESI interface. The operational parameters for the TSQ Quantum Ultra instrument were a spray voltage of 4000 V, capillary temperature of 380° C., vaporizer temperature 400° C., shealth gas 60 arbitrary units, Aux gas 20 arbitrary units, tube lens 85 and collision gas 1.2 mTorr. SRM chromatograms of kynurenine (Q1: 209.2>Q3:94.0) and internal standard (Q1: 215.3>Q3:98.2) were collected for 90 sec. The peak area was integrated by Xcalibur Quan software. The ratios between the kynurenine generated in the reaction and 2D6-Kynurenine spiked-in internal standard were used to generate percentage inhibition and IC50 values. Compounds were titrated and IC50' s were calculated by 4 parameter sigmoidal curve fitting formula.
# T1 sequence (P14902 whole entry): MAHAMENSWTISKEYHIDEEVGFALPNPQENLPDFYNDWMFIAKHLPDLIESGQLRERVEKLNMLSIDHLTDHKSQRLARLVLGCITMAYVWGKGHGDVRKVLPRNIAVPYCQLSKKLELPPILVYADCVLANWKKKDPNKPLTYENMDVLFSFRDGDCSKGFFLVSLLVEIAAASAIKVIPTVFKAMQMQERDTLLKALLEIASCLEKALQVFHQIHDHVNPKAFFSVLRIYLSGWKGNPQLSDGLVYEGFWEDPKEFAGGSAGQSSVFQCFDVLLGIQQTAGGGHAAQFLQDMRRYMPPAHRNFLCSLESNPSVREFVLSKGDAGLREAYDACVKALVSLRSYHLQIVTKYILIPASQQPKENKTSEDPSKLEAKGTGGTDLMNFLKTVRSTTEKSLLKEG
row,IC50,Structure (SMILES)
1,186 nM,"O=C(C1CC1)N1CCCc2cc(C3(c4nc5ncc(C(F)(F)F)cc5[nH]4)CCC3)ccc21 [Example 1, Cyclopropyl(6-(1-(6-(trifluoromethyl)-1H-imidazo[4,5-b]pyridin-2-yl)cyclobutyl)-3A-dihydroquinolin-1(2H)-yl)methanone]"
2,132 nM,"O=C(C1CC1)N1CCCc2cc(C3(c4nc5ccc(Cl)cc5[nH]4)CCC3)ccc21 [Example 2, {6-[1-(6-chloro-1H-benzimidazol-2-yl)cyclobutyl]-3,4-dihydroquinolin-1(2H)-yl}(cyclopropyl) methanone]"
3,30.7 nM,"O=C([C@H]1CCCO1)N1CCCc2cc(C3(c4nc5ncc(C(F)(F)F)cc5[nH]4)CCC3)ccc21 [Example 3, [(2R)-oxolan-2-yl][6-{1-[6-(trifluoromethyl)-1H-imidazo[4,5-b]pyridin-2-yl]cyclobutyl}-3,4-dihydroquinolin-1(2H)-yl]methanone]"
4,27 nM,"N#Cc1ccc2nc(C3(c4ccc5c(c4)CCCN5C(=O)C4CC4)CCC3)[nH]c2c1 [Example 4, 2-{1-[1-(cyclopropane-carbonyl)-1,2,3,4-tetrahydroquinolin-6-yl]cyclobutyl}-1H-benzimidazole-6-carbonitrile]"
5,229 nM,"COC(=O)N1CCCc2cc(C3(c4nc5ncc(C(F)(F)F)cc5[nH]4)CCC3)ccc21 [Example 5, Methyl 6-(1-(6-(trifluoromethyl)-1H-imidazo[4,5-b]pyridin-2-yl)cyclobutyl)-3,4-dihydroquinoline-1(2H)-carboxylate]"
6,56.3 nM,"O=C(C1CC1)N1CCCc2nc(C3(c4nc5cc(C(F)(F)F)cnc5[nH]4)CCC3)ccc21 [Example 13, Cyclopropyl(6-(1-(6-(trifluoromethyl)-3H-imidazo[4,5-b]pyridin-2-yl)cyclobutyl)-3,4-dihydro-1,5-naphthyridin-1(2H),-yl)methanone]"
7,26.1 nM,"O=C([C@@H]1CCCCO1)N1CCCc2nc(C3(c4nc5ncc(C(F)(F)F)cc5[nH]4)CCC3)ccc21 [Example 15, (S)-(tetrahydro-2H-pyran-2-yl)(6-(1-(6-(trifluoromethyl)-1H-imidazo[4,5-b]pyridin-2-yl)cyclobutyl)-3,4-dihydro-1,5-naphthyridin-1(2H)-yl)methanone]"
8,14.1 nM,"O=C([C@H]1CCCCO1)N1CCCc2nc(C3(c4nc5ncc(C(F)(F)F)cc5[nH]4)CCC3)ccc21 [Example 16, (R)-(tetrahydro-2H-pyran-2-yl)(6-(1-(6-(trifluoromethyl)-1H-imidazo[4,5-b]pyridin-2-yl)cyclobutyl)-3,4-dihydro-1,5-naphthyridin-1(2H)-yl)methanone]"
9,47.8 nM,"O=C(c1ccccc1Cl)N1CCCc2nc(C3(c4nc5ncc(C(F)(F)F)cc5[nH]4)CCC3)ccc21 [Example 17, (2-chlorophenyl)[6-{1-[6-(trifluoromethyl)-1H-imidazo[4,5-b]pyridin-2-yl]cyclobutyl}-3,4-dihydro-1,5-naphthyridin-1(2H)-yl]methanone]"
10,494 nM,"COC(=O)N1CCCc2nc(C3(c4nc5cc(C(F)(F)F)cnc5[nH]4)CCC3)ccc21 [Example 18, methyl 6-(1-(6-(trifluoromethyl)-3H-imidazo[4,5-b]pyridin-2-yl)cyclobutyl)-3,4-dihydro-1,5-naphthyridine-1(2H),-carboxylate]"
11,274 nM,"CCOC(=O)N1CCCc2nc(C3(c4nc5cc(C(F)(F)F)cnc5[nH]4)CCC3)ccc21 [Example 19, ethyl 6-{1-[6-(trifluoromethyl)-3H-imidazo[4,5-b]pyridin-2-yl]cyclobutyl}-3,4-dihydro-1,5-naphthyridine-1(2H)-carboxylate]"
12,35 nM,"N#Cc1ccc2nc(C3(c4ccc5c(n4)CCCN5C(=O)OC4CC4)CCC3)[nH]c2c1 [Example 20, cyclopropyl 6-[1-(6-cyano-1H-benzimidazol-2-yl)cyclobutyl]-3,4-dihydro-1,5-naphthyridine-1(2H)-carboxylate]"
13,44.1 nM,"O=C(OC1CC1)N1CCCc2nc(C3(c4nc5ccc(Cl)cc5[nH]4)CCC3)ccc21 [Example 21, cyclopropyl 6-[1-(6-chloro-1H-benzimidazol-2-yl)cyclobutyl]-3,4-dihydro-1,5-naphthyridine-1(2H)-carboxylate]"
14,60.5 nM,"O=C(OC1CC1)N1CCCc2nc(C3(c4nc5ncc(Cl)cc5[nH]4)CCC3)ccc21 [Example 22, cyclopropyl 6-[1-(6-chloro-1H-imidazo[4,5-b]pyridin-2-yl)cyclobutyl]-3,4-dihydro-1,5-naphthyridine-1(2H)-carboxylate]"
15,64.2 nM,"O=C(OC1CC1)N1CCCc2nc(C3(c4nc5ncc(C(F)(F)F)cc5[nH]4)CCC3)ccc21 [Example 23, cyclopropyl 6-{1-[6-(trifluoromethyl)-1H-imidazo[4,5-b]pyridin-2-yl]cyclobutyl}-3,4-dihydro-1,5-naphthyridine-1(2H)-carboxylate]"
16,121 nM,"N#Cc1cnc2nc(C3(c4ccc5c(n4)CCCN5C(=O)OC4CC4)CCC3)[nH]c2c1 [Example 24, cyclopropyl 6-[1-(6-cyano-1H-imidazo[4,5-b]pyridin-2-yl)cyclobutyl]-3,4-dihydro-1,5-naphthyridine-1(2H)-carboxylate]"
17,117 nM,"CC(c1ccc2c(n1)CCCN2C(=O)OC1CC1)c1nc2ccc(Cl)cc2[nH]1 (stereo not drawn) [Example 25, cyclopropyl 6-(1-(6-chloro-1H-benzo[d]imidazol-2-yl)ethyl)-3,4-dihydro-1,5-naphthyridine-1(2H)-carboxylate]"
18,55 nM,"C[C@@H](c1ccc2c(n1)CCCN2C(=O)OC1CC1)c1nc2ccc(Cl)cc2[nH]1 [Example 26, cyclopropyl (S)-6-(1-(6-chloro-1H-benzo[d]imidazol-2-yl)ethyl)-3,4-dihydro-1,5-naphthyridine-1(2H)-carboxylate]"
19,56.8 nM,"C[C@H](c1ccc2c(n1)CCCN2C(=O)OC1CC1)c1nc2ccc(Cl)cc2[nH]1 [Example 27, cyclopropyl (R)-6-(1-(6-chloro-1H-benzo[d]imidazol-2-yl)ethyl)-3,4-dihydro-1,5-naphthyridine-1(2H)-carboxylate]"
20,355 nM,"Cc1nccc(N2CCCc3nc(C4(c5nc6cc(C(F)(F)F)cnc6[nH]5)CCC4)ccc32)n1 [Example 30, 1-(2-methylpyrimidin-4-yl)-6-(1-(6-(trifluoromethyl)-3H-imidazo[4,5-b]pyridin-2-vyl)cyclobutyl)-1,2,3,4-tetrahydro-1,5-naphthyridine]"
21,83.3 nM,"FC(F)(F)c1nccc(N2CCCc3nc(C4(c5nc6cc(Cl)ccc6[nH]5)CCC4)ccc32)n1 [Example 33, 6-[1-(5-chloro-1H-benzimidazol-2-yl)cyclobutyl]-1-[2-(trifluoromethyl)pyrimidin-4-yl]-1,2,3,4-tetrahydro-1,5-naphthyridine]"
22,140 nM,"Cc1nccc(N2CCCc3nc(C4(c5nc6cc(Cl)ccc6[nH]5)CCC4)ccc32)n1 [Example 34, 6-[1-(6-chloro-1H-benzimidazol-2-yl)cyclobutyl]-1-(2-methylpyrimidin-4-yl)-1,2,3,4-tetrahydro-1,5-naphthyridine]"
23,53.9 nM,"FC(F)(F)c1nccc(N2CCCc3nc(C4(c5nc6cc(Cl)cnc6[nH]5)CCC4)ccc32)n1 [Example 35, 6-[1-(6-chloro-3H-imidazo[4,5-b]pyridin-2-yl)cyclobutyl]-1-[2-(trifluoromethyl)pyrimidin-4-yl]-1,2,3,4-tetrahydro-1,5-naphthyridine]"
24,71.3 nM,"N#Cc1ccc2nc(C3(c4ccc5c(n4)CCCN5c4ccnc(C(F)(F)F)n4)CC4(CC4)C3)[nH]c2c1 [Example 41, 2-(5-(5-(2-(trifluoromethyl)pyrimidin-4-yl)-5,6,7,8-tetrahydro-1,5-naphthyridin-2-yl)spiro[2,3]hexan-5-yl)-1H-benzo[d]imidazole-6-carbonitrile]"
